Laboratory results published in PMC6002460, “Pharmacological evaluation of new constituents of “Spice”: synthetic cannabinoids based on indole, indazole, benzimidazole and carbazole scaffolds” (Forensic Toxicology, 2018).
“Also recorded” adds a separate entry of the source. Read-outs that look alike come from different tables or passages of the source.

Tests used:
human CB1 receptor [1] = target: T1, human CB1 receptor (Homo sapiens, UniProt P21554); assay: biochemical; assay type: binding; settings: [3H]CP55,940 0.1 nM, CHO cell membranes; read-out: Ki ± SEM Human CB1
T1 construct: expressed in transfected cells; host or cells: CHO cells (membrane preparations)

human CB2 receptor [2] = target: T2, human CB2 receptor (Homo sapiens, UniProt P34972); assay: biochemical; assay type: binding; settings: [3H]CP55,940 0.1 nM, CHO cell membranes; read-out: Ki ± SEM Human CB2
T2 construct: expressed in transfected cells; host or cells: CHO cells (membrane preparations)

human GPR55 = target: T3, human GPR55 (Homo sapiens, UniProt Q9Y2T6); assay: β-Arrestin PathHunter assay, recombinant CHO cells expressing GPR55; assay type: cell-based; settings: for Human GPR55 % activation / Human GPR55 % inhibition: value in parentheses; for Human GPR55 % inhibition: antagonist mode versus LPI 1 µM
T3 construct: host or cells: CHO cells
Protocol: (§1) β-Arrestin assays were performed in recombinant CHO cells expressing either the human GPR18 or the human GPR55 as described before using the β-galactosidase enzyme fragment complementation technology (β-arrestin PathHunter™ assay; DiscoverX, Fremont, CA, USA).
(§2) The orphan receptors GPR18 and GPR55 can interact with certain natural and synthetic cannabinoids. […] Therefore, we investigated the new series of indole, indazole, benzimidazole and carbazole-derived structures in β-arrestin assays at GPR18 and GPR55 (Table 2). […] For the lipophilic substitutions, the following rank order of potency was observed: ethyl > methyl > chloro > fluoro. Therefore, it can be concluded that a lipophilic substitution in position 4 of the naphthyl residue was a requirement for GPR55 inhibition.

human GPR18 = target: T4, human GPR18 (Homo sapiens, UniProt Q14330); assay: β-Arrestin PathHunter assay, recombinant CHO cells expressing GPR18; assay type: cell-based; settings: for Human GPR18 % activation / Human GPR18 % inhibition: value in parentheses
T4 construct: host or cells: CHO cells
T4 sequence (Q14330 1-331): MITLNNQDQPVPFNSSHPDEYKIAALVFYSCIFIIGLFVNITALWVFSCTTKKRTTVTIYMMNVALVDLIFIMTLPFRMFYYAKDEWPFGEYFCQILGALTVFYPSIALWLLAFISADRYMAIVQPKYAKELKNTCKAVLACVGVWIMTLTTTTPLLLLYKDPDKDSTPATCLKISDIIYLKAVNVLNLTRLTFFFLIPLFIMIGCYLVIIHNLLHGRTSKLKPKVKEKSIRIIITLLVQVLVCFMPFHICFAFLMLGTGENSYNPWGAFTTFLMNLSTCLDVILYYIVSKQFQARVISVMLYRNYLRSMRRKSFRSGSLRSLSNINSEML
Protocol: as §1, §2

CB1 receptor = settings: membrane potential assay; ref Banister et al. [42]; cited from earlier work
CB2 receptor = settings: membrane potential assay; ref Banister et al. [42]; cited from earlier work
human CB1 receptor [3] = target: T1, human CB1 receptor; assay: cAMP accumulation assay, CHO cells stably expressing CB1; assay type: cell-based; settings: for EC50: forskolin 10 µM, read-out: EC50 CB1 receptor activation, cAMP accumulation
Protocol: (§3) cAMP accumulation assays were performed also as previously described. Briefly, CHO cells stably expressing the respective human CB receptor subtype CB1 or CB2 were seeded overnight. […] After incubation for 15 min the buffer was removed, and the cells were lyzed. The amount of cAMP was determined in a radioligand binding assay by incubating 50 µL of the cell lysate with 3 nM [^3H]cAMP in the presence of protein preparations from bovine adrenal glands (cAMP binding protein). Bound and unbound radioligand were separated by rapid filtration through GF/B filters, and radioactivity was determined by liquid scintillation counting. To test for antagonistic activity, test compounds were added to Hank’s buffered salt solution (HBSS) containing 10% dimethyl sulfoxide (DMSO), 10 min after the application of Ro-20-1724, and the mixture was incubated for 20 min at 37 °C.
(§4) As a next step, we investigated the compounds in cAMP accumulation assays, to obtain information on their functionality (Fig. 3). CB receptors are Gi protein-coupled and thus reduce the levels of cAMP in the cells upon activation.

human CB2 receptor [4] = target: T2, human CB2 receptor; assay: cAMP accumulation assay, CHO cells stably expressing CB2; assay type: cell-based
Protocol: as §3, §4

[5] = agonist mode, read-out: Human GPR55 EC50
[6] = antagonist mode versus lysophosphatidylinositol (LPI, 1 µM), read-out: Human GPR55 IC50
[7] = agonist mode, read-out: Human GPR18 EC50

T3 sequence (Q9Y2T6 whole entry): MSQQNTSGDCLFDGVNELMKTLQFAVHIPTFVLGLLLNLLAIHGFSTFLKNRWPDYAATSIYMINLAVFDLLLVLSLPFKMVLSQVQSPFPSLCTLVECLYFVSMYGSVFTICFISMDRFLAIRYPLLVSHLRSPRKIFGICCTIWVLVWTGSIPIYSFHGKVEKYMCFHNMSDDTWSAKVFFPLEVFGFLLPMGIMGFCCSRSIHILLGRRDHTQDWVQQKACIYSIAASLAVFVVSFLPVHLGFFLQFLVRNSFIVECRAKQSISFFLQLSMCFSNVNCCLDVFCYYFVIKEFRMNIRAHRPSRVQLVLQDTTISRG
T1 sequence (P21554 whole entry): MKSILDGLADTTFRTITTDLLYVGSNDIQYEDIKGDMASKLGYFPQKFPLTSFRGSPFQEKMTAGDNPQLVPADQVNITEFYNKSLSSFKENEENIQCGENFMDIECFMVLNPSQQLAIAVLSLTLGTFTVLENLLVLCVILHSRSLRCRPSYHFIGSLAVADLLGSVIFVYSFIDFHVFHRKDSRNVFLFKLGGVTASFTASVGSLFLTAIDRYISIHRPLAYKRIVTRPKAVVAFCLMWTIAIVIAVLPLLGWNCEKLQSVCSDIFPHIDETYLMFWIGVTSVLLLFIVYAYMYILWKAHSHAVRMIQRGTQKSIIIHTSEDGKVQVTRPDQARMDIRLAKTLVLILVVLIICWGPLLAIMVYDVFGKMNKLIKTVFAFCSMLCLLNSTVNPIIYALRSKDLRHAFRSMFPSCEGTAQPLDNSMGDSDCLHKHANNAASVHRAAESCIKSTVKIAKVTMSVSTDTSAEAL
T2 sequence (P34972 whole entry): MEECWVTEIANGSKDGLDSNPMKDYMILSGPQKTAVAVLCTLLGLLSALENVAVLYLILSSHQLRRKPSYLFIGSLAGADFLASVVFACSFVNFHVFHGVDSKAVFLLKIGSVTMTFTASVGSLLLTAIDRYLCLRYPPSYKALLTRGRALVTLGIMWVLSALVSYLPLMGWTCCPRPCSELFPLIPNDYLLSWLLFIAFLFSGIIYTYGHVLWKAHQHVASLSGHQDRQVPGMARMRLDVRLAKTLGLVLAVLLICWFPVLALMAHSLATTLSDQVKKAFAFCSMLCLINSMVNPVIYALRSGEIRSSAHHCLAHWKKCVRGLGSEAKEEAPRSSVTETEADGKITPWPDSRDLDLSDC

Work on `CC(C)(C)[C@H](NC(=O)c1cn(CCCCCF)c2ccccc12)C(N)=O` [compound 21, 5F-ADBICA] yielded a Ki (human CB1 receptor [1]) of 2.72 ± 0.35 nM, a Ki (human CB2 receptor [2]) of 1.83 ± 0.11 nM and an EC50 (human GPR55) greater than 10000 nM. The IC50 (human GPR55) was greater than 10000 nM, the “Human GPR55 % activation” value (human GPR55; agonist mode) was 8% and the EC50 (human GPR18) was greater than 10000 nM. The IC50 (human GPR18) was greater than 10000 nM, the “Human GPR18 % activation” value (human GPR18; agonist mode) was 27% and the EC50 (CB1 receptor) was 0.77 nM. For the same compound, the EC50 (CB2 receptor) was 1.2 nM.

`CC(C)(C)[C@H](NC(=O)c1nn(CCCCCF)c2ccccc12)C(N)=O` [compound 23, 5F-ADB-PINACA] showed a Ki (human CB1 receptor [1]) of 1.43 ± 0.69 nM, a Ki (human CB2 receptor [2]) of 0.694 ± 0.078 nM and an EC50 (human GPR55) greater than 10000 nM. For the same compound, the IC50 (human GPR55) was greater than 10000 nM, the “Human GPR55 % activation” value (human GPR55; agonist mode) was 18% and the EC50 (human GPR18) was greater than 10000 nM. For the same compound, the IC50 (human GPR18) was greater than 10000 nM, the “Human GPR18 % activation” value (human GPR18; agonist mode) was 9% and the “Human GPR18 % inhibition” value (human GPR18; antagonist mode) was 21%. For the same compound, the EC50 (CB1 receptor) was 0.24 nM and the EC50 (CB2 receptor) was 2.1 nM.

Compound `CC(C)(C)[C@H](NC(=O)c1nn(Cc2ccc(F)cc2)c2ccccc12)C(N)=O` [compound 24, ADB-FUBINACA] has a Ki (human CB2 receptor [2]) of 0.339 ± 0.059 nM, an EC50 (human GPR55) greater than 10000 nM and an IC50 (human GPR55) greater than 10000 nM. The “Human GPR55 % activation” value (human GPR55; agonist mode) was 7%, the EC50 (human GPR18) was greater than 10000 nM and the IC50 (human GPR18) was greater than 10000 nM. The “Human GPR18 % activation” value (human GPR18; agonist mode) was 7%, the “Human GPR18 % inhibition” value (human GPR18; antagonist mode) was 16% and the EC50 (CB1 receptor) was 1.2 nM. For the same compound, the EC50 (CB2 receptor) was 3.5 nM.

With `COC(=O)[C@@H](OC(=O)c1nn(CC2CCCCC2)c2ccccc12)C(C)(C)C` [compound 34] the Ki (human CB1 receptor [1]) was 10.4 ± 7.4 nM, the Ki (human CB2 receptor [2]) was 1.11 ± 0.14 nM and the EC50 (human GPR55) was greater than 10000 nM. The IC50 (human GPR55) was 9290 ± 1700 nM, the “Human GPR55 % activation” value (human GPR55; agonist mode) was 1% and the EC50 (human GPR18) was greater than 10000 nM. For the same compound, the IC50 (human GPR18) was 12600 ± 3500 nM and the “Human GPR18 % activation” value (human GPR18; agonist mode) was 0%.

`O=C(c1cccc2ccccc12)c1cn(Cc2ccc(F)cc2)c2ccccc12` [compound 35, FUB-JWH-018] gave a Ki (human CB1 receptor [1]) of 3.27 ± 1.76 nM, a Ki (human CB2 receptor [2]) of 1.34 ± 0.48 nM and an EC50 (human GPR55) greater than 10000 nM. For the same compound, the IC50 (human GPR55) was greater than 10000 nM, the “Human GPR55 % activation” value (human GPR55; agonist mode) was 7% and the “Human GPR55 % inhibition” value (human GPR55) was 30%. The EC50 (human GPR18) was greater than 10000 nM, the IC50 (human GPR18) was greater than 10000 nM and the “Human GPR18 % activation” value (human GPR18; agonist mode) was 20%. For the same compound, the “Human GPR18 % inhibition” value (human GPR18; antagonist mode) was 30%.

For `O=C(c1ccc(F)c2ccccc12)c1cn(CCCCCF)c2ccccc12` [compound 36, F-2201], the Ki (human CB1 receptor [1]) was 0.852 ± 0.192 nM, the Ki (human CB2 receptor [2]) was 1.89 ± 0.57 nM and the EC50 (human GPR55) was greater than 10000 nM. For the same compound, the IC50 (human GPR55) was 22100 ± 12200 nM, the EC50 (human GPR18) was greater than 10000 nM and the IC50 (human GPR18) was greater than 10000 nM. The “Human GPR18 % activation” value (human GPR18; agonist mode) was 18% and the “Human GPR18 % inhibition” value (human GPR18; antagonist mode) was 14%.

Work on `O=C(c1ccc(Cl)c2ccccc12)c1cn(CCCCCF)c2ccccc12` [compound 37, Cl-2201] yielded a Ki (human CB1 receptor [1]) of 0.772 ± 0.101 nM, a Ki (human CB2 receptor [2]) of 1.18 ± 0.19 nM and an EC50 (human GPR55) greater than 10000 nM. It also gave an IC50 (human GPR55) of 7120 ± 1260 nM, an EC50 (human GPR18) greater than 10000 nM and an IC50 (human GPR18) greater than 10000 nM. The “Human GPR18 % activation” value (human GPR18; agonist mode) was 16% and the “Human GPR18 % inhibition” value (human GPR18; antagonist mode) was 4%.

For `O=C(c1ccc2c(c1)c1ccccc1n2CCCCCF)c1cccc2ccccc12` [compound 40, EG-2201], the Ki (human CB1 receptor [1]) was 22.4 ± 12.8 nM, the Ki (human CB2 receptor [2]) was 4.36 ± 2.91 nM and the Emax (human CB1 receptor [3]; CHO, read-out: efficacy at CB1 compared to maximum response of CP55,940, cAMP accumulation) was 94%. The “functional behaviour at CB1 receptor (in words)” value (human CB1 receptor [3]; cAMP accumulation) was “agonistic behavior”, the EC50 (human CB1 receptor [3]) was 15.6 nM and the Emax (human CB2 receptor [4]; CHO, read-out: efficacy at CB2 compared to maximum response of CP55,940, cAMP accumulation) was 77%. For the same compound, the “functional behaviour at CB2 receptor (in words)” value (human CB2 receptor [4]; cAMP accumulation) was “agonistic behavior”, the EC50 (human CB2 receptor [4]; forskolin 10 µM, read-out: EC50 CB2 receptor activation, cAMP accumulation) was 5.65 nM and the EC50 (human GPR55; [5]) was greater than 10000 nM. The “Human GPR55 % inhibition” value (human GPR55) was 3%, the IC50 (human GPR55; [6]) was greater than 10000 nM and the “Human GPR18 % activation” value (human GPR18; agonist mode) was 3%. For the same compound, the EC50 (human GPR18; [7]) was greater than 10000 nM, the “Human GPR18 % inhibition” value (human GPR18; antagonist mode) was 7% and the IC50 (human GPR18; antagonist mode, read-out: Human GPR18 IC50) was greater than 10000 nM.

With `COC(=O)C(NC(=O)c1ccc2c(c1)c1ccccc1n2CC1CCCCC1)C(C)(C)C` (centres unmarked) [compound 41, MDMB-CHMCZCA] the Ki (human CB1 receptor [1]) was 5.75 ± 1.65 nM, the Ki (human CB2 receptor [2]) was 6.67 ± 1.4 nM and the “functional behaviour at CB1 receptor (in words)” value (human CB1 receptor [3]; cAMP accumulation) was “full efficacy; also recorded: agonist”. For the same compound, the EC50 (human CB1 receptor [3]) was 120 nM, the “functional behaviour at CB2 receptor (in words)” value (human CB2 receptor [4]; cAMP accumulation) was “completely lacked CB2 receptor activation; also recorded: antagonist” and the “CB2 receptor activation in cAMP accumulation assay (in words)” value (human CB2 receptor [4]; compound at 10 µM, normalized to CP55,940 (1 µM)) was “failed to evoke an agonistic response”. The IC50 (human CB2 receptor [4]; read-out: IC50 inhibition of CB2 receptor activation, cAMP accumulation) was 807 ± 137 nM, the EC50 (human GPR55; [5]) was greater than 10000 nM and the “Human GPR55 % inhibition” value (human GPR55) was 25%. It also gave an IC50 (human GPR55; [6]) greater than 10000 nM, an EC50 (human GPR18; [7]) greater than 10000 nM and an IC50 (human GPR18; extrapolated value, full curve could not be determined due to limited solubility, read-out: Human GPR18 IC50 (extrapolated)) of 9660 ± 1200 nM.
